Test results as given in ChEMBL document CHEMBL1132830, “Serotonin transporter inhibitors: synthesis and binding potency of 2'-methyl- and 3'-methyl-6-nitroquipazine” (Bioorg Med Chem Lett, 2000).

What was measured:
[1] = biological target: Sodium-dependent serotonin transporter (Rattus norvegicus, UniProt P31652); test: In vitro radioligand [3H]-paroxetine from rat cortical Serotonin transporter
[2] = Equipotent molar ratio of compound to that of standard (compound 1) was evaluated

Sodium-dependent serotonin transporter, sequence (P31652 whole entry): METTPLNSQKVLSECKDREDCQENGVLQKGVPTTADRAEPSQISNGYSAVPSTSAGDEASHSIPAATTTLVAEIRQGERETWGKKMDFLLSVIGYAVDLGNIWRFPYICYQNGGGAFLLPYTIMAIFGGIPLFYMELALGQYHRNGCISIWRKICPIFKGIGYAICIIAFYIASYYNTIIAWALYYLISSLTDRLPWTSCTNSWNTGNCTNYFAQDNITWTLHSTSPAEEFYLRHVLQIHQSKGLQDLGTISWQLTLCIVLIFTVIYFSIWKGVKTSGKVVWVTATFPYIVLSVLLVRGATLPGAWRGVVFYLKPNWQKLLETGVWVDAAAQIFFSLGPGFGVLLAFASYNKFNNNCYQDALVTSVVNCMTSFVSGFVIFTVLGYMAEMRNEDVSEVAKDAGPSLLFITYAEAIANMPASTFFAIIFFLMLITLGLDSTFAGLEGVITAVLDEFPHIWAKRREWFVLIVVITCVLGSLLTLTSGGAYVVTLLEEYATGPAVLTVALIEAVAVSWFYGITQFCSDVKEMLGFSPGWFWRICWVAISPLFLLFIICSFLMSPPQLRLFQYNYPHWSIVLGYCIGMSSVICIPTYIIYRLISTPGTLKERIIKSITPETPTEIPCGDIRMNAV

Row | SMILES | Ki [1] | Ratio [2]
1 | O=[N+]([O-])c1ccc2nc(N3CCNCC3)ccc2c1 [6-NITROQUIPAZINE] | 0.163 nM | 1
2 | CC1CN(c2ccc3cc([N+](=O)[O-])ccc3n2)CCN1 (configuration not stated) | 4.56 nM | 28
3 | O=[N+]([O-])c1ccc2nc(N3CCNCC3)ccc2c1I | 0.19 nM | –
4 | CC1CNCCN1c1ccc2cc([N+](=O)[O-])ccc2n1 (configuration not stated) | 0.081 nM | 0.49
